# Where two headings read alike, the source gives them in different places.
# Key:
# [1] = biological target: T1, NSD2 (both long and short isoforms) (Homo sapiens, UniProt O96028); assay: NSD2 degradation by immunoblotting in ALL cell lines RPMI-8402 and SEM (NSD2 E1099K); assay type: cell-based; settings: for Dmax / DC50: 24 h
# T1 sequence (O96028 211-350 limits assumed): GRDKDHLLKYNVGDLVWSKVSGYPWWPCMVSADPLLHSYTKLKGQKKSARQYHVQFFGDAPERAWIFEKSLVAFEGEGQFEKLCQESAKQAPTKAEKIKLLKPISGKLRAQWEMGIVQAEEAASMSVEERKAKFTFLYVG
# Procedure: As previous studies have shown that ALL cell lines with NSD2 gain-of-function mutation are more dependent on NSD2 regarding H3K36me2 level and cell proliferation,[7],[8] we further characterized LLC0424 in ALL cell lines with NSD2 E1099K gain-of-function mutation (RPMI-8402 and SEM). We first treated these cells with LLC0424 with different concentrations for 24 h. […] In addition, we compared the degradation efficiency of LLC0424 with the two previously published NSD2 degraders 6 and 7 at different concentrations and time points.
# After treatment, the cultured cells were collected and rinsed with phosphate-buffered saline (PBS) in room temperature. The cells were treated with RIPA buffers (ThermoFisher Scientific) supplemented with Halt Protease and Phosphatase Inhibitor Cocktail (ThermoFisher Scientific). After sonication and centrifugation, the total amount of protein in the cell lysates was measured by Pierce Bovine Serum Albumin Standard Pre-Diluted Set (ThermoFisher Scientific). After mixed with LDS-sample buffer (Invitrogen) supplemented with Sample Reducing Agent (Invitrogen) and heated in 70 °C for 10 min, equal amount of protein was loaded into NuPAGE 4–12%, Bis-Tris Protein Gel (ThermoFisher Scientific) or NuPAGE 3–8%, Tris-Acetate Protein Gel (ThermoFisher Scientific), and blotted with primary antibodies. After incubated with HRP-conjugated secondary antibodies, the membranes were developed with ECL Prime Western Blotting Detection Reagent (cytiva) and imaged on Odyssey Fc Imager (LiCOR Biosciences).
# [2] = biological target: T2, NSD2 (Homo sapiens, UniProt O96028); assay: Compound screening: NSD2 degradation by immunoblotting in VCaP cells; settings: VCaP, 24 h
# T2 sequence (O96028 1-1365): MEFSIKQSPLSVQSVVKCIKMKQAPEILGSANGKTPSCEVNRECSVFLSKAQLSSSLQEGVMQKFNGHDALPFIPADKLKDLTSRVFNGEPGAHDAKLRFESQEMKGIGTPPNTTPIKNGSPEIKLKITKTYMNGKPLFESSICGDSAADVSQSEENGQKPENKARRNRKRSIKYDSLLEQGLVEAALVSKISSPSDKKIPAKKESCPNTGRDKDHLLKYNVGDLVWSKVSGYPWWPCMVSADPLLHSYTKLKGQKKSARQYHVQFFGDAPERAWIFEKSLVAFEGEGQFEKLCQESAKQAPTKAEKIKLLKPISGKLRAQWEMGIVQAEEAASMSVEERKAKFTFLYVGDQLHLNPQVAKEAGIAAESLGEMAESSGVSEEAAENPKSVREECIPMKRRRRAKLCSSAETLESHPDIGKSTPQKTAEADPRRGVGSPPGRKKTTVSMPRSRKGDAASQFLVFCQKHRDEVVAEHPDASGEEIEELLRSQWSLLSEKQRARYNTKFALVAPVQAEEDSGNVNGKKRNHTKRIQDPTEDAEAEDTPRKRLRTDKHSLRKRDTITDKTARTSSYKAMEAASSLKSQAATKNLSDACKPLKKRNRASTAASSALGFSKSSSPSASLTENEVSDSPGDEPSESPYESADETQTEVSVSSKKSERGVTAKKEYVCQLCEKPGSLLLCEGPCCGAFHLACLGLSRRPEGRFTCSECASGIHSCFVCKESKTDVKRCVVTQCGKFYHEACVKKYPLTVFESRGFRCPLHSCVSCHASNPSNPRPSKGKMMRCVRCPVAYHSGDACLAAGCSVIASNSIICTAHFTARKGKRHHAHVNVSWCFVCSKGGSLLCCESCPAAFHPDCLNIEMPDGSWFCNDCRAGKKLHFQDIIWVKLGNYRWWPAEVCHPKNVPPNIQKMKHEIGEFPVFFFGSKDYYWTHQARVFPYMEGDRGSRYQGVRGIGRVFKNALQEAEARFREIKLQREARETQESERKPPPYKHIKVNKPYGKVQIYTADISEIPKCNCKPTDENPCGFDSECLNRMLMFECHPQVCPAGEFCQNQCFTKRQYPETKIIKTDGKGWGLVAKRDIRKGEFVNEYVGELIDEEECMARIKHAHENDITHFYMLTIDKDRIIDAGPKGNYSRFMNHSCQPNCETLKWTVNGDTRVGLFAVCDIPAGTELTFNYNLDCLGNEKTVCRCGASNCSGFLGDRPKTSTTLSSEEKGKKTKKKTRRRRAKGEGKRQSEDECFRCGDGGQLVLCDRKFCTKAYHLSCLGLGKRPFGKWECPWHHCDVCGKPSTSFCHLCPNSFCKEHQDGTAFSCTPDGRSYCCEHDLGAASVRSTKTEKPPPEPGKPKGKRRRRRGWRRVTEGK
# Procedure: After treatment, the cultured cells were collected and rinsed with phosphate-buffered saline (PBS) in room temperature. The cells were treated with RIPA buffers (ThermoFisher Scientific) supplemented with Halt Protease and Phosphatase Inhibitor Cocktail (ThermoFisher Scientific). After sonication and centrifugation, the total amount of protein in the cell lysates was measured by Pierce Bovine Serum Albumin Standard Pre-Diluted Set (ThermoFisher Scientific). […] After incubated with HRP-conjugated secondary antibodies, the membranes were developed with ECL Prime Western Blotting Detection Reagent (cytiva) and imaged on Odyssey Fc Imager (LiCOR Biosciences).
# Western blot was then performed as previously described to detect NSD2 degradation.
smiles,measurement,setting,value
"O=C1CCC(N2C(=O)c3ccc(N4CCC(NC(=O)c5ccc(NC(=O)c6ccc(CN(C(=O)c7ccc8c(c7)OCC(=O)N8)C7CC7)cc6)cc5)CC4)cc3C2=O)C(=O)N1 (stereo not drawn) [compound 10l, N-Cyclopropyl-N-(4-((4-((1-(2-(2,6-dioxopiperidin-3-yl)-1,3-dioxoisoindolin-5-yl)piperidin-4-yl)carbamoyl)phenyl)carbamoyl)benzyl)-3-oxo-3,4-dihydro-2H-benzo[b][1,4]oxazine-7-carboxamide]",Dmax,"[1]; RPMI 8402, RPMI-8402 cells",> 96%
same,Dmax,"[1]; RPMI 8402, SEM cells",> 78%
same,time at which NSD2 degradation started,"[1]; RPMI-8402 and SEM cells, 2 μM",4 h
same,time to significant NSD2 degradation,"[1]; RPMI-8402 and SEM cells, 2 μM",≤ 8 h
same,"NSD2 degradation, comparison of degraders","[1]; RPMI-8402 and SEM cells, 0.5 and 2 μM for 24 h or 2 μM for 12 and 24 h",significant NSD2 degradation
same,DC50,[1]; RPMI-8402 cells,0.02 µM
same,DC50,[1]; SEM cells,0.11 µM
same,Dmax at 2 µM,[2]; read-out: 2.0 μM Degradation % (VCaP),95%
same,Dmax at 2 µM,[2]; read-out: % Degradation,95%
